Source: patent publication US20080119467A1, “Purine Derivatives, Compositions Containing Them and Use Thereof” (AVENTIS PHARMA S.A., priority 2005, published 2008)
Counter-ions that a name gives are not always drawn.

biological target: Hsp82 (Saccharomyces cerevisiae, UniProt P02829); assay: Inhibition of the ATPase activity of Hsp82 in the enzymatic coupling system (pyruvate kinase / lactate dehydrogenase); type: biochemical; details: ATPase activity of Hsp82, PK/LDH enzymatic coupling system, 1 μM Hsp82, 250 μM ATP, 37° C., 340 nm
Sequence (P02829 whole entry): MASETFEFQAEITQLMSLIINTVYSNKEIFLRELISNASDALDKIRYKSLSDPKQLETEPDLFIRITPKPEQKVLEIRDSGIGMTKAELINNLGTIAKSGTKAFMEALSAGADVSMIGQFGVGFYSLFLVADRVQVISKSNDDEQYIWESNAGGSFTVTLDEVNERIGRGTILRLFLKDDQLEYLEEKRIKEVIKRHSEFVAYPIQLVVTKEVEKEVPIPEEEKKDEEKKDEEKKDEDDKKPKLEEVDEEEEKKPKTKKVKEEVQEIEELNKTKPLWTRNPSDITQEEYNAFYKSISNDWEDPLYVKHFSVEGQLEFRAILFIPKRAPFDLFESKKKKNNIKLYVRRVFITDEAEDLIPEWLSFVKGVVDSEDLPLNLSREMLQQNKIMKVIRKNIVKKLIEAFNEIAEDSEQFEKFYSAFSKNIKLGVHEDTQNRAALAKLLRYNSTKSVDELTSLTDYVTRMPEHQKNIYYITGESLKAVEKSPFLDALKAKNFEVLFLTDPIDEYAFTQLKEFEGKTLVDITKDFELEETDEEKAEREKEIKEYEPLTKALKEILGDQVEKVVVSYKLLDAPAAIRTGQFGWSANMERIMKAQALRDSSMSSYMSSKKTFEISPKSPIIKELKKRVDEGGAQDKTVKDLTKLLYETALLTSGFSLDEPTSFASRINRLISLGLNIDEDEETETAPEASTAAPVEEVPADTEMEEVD
Description: The formation of ADP due to the ATPase activity of Hsp82 was utilized for developing another method for evaluating the enzymatic activity of this enzyme by the application of an enzymatic coupling system employing pyruvate kinase (PK) and lactate dehydrogenase (LDH). In this spectrophotometric method of the kinetic type, the PK catalyzes the formation of ATP and pyruvate from phosphenol-pyruvate (PEP) and of ADP produced by HSP82. The pyruvate formed, which is a substrate of LDH, is then converted to lactate in the presence of NADH. In this case, the decrease in the concentration of NADH, measured from the decrease in absorbance at a wavelength of 340 nm, is proportional to the concentration of ADP produced by HSP82. The test products are incubated in a reaction volume of 100 μl of compound buffer of 100 mM Hepes-NaOH (pH 7.5), 5 mM MgCl2, 1 mM DTT, 150 mM KCl, 0.3 mM NADH, 2.5 mM PEP and 250 μM ATP. This mixture is preincubated at 37° C. for 30 min before adding 3.77 units of LDH and 3.77 units of PK. The reaction is initiated by addition of the product to be evaluated, at variable concentrations, and of Hsp82, at a concentration of 1 μM. Then the enzymatic activity of Hsp82 is measured, continuously, in a microplate reader, at 37° C., at a wavelength of 340 nm. The initial rate of the reaction is obtained by measuring the slope of the tangent of the recorded curve to the origin. The enzymatic activity is expressed as μM of ADP formed per minute. The effect of the various products tested is expressed as percentage inhibition of the ATPase activity. The inhibitory activities on the ATPase activity of Hsp82 obtained with the products of the invention in the enzymatic coupling system are presented in the following table, according to the following criteria of inhibition of the ATPase activity of Hsp82: […]

Structure (SMILES) | IC50 [nM]
Cl.Clc1nc(N2CCN(Cc3ccccc3)CC2)c2nc[nH]c2n1 [Example 1, 2-Chloro-6-[4-(phenylmethyl)-piperazin-1-yl]-1H-purine monohydrochloride] | < 1000
Clc1nc(N2CCN(c3ccccn3)CC2)c2nc[nH]c2n1 [Example 2, 2-chloro-6-[4-(pyridin-2-yl)-piperazin-1-yl]1H-purine] | < 1000
Clc1nc(N2CCOCC2)c2nc[nH]c2n1 [Example 3, 2-chloro-6-(morpholin-4-yl)-1H-purine] | 1000 to 10000
Clc1nc(N2CCSCC2)c2nc[nH]c2n1 [Example 4, 2-chloro-6-(thiamorpholin-4-yl)-1H-purine] | 1000 to 10000
Clc1nc(N2CCCCC2)c2nc[nH]c2n1 [Example 5, 2-chloro-6-(piperidin-1-yl)-1H-purine] | < 1000
Clc1nc(N2CCN(C(c3ccccc3)c3ccccc3)CC2)c2nc[nH]c2n1 [Example 6, 2-chloro-6-[4-(diphenylmethyl)-piperazin-1-yl]1H-purine] | 1000 to 10000
Clc1nc(NC2CCCC2)c2nc[nH]c2n1 [Example 7, 2-chloro-6-cyclopentylamino-1H-purine] | 10000 to 100000
Clc1nc(N2CCC(Cc3ccccc3)CC2)c2nc[nH]c2n1 [Example 8, 2-Chloro-6-[4-(phenylmethyl)-piperidin-1-yl]-1H-purine monohydrochloride] | < 1000
Clc1nc(N2CCN(c3ccccc3)CC2)c2nc[nH]c2n1 [Example 9, 2-Chloro-6-(4-phenyl-piperazin-1-yl)-1H-purine monohydrochloride] | 1000 to 10000
COc1ccc(CN2CCN(c3nc(Cl)nc4[nH]cnc34)CC2)cc1OC [Example 10, 2-chloro-6-[4-(3,4-dimethoxy-phenyl)methyl-piperazin-1-yl]1H-purine] | 10000 to 100000
Clc1nc(N2CCN(c3cccnc3)CC2)c2nc[nH]c2n1 [Example 11, 2-chloro-6-[4-(pyridin-3-yl)-piperazin-1-yl]1H-purine] | 1000 to 10000
NC(=O)c1cccc(N2CCN(c3nc(Cl)nc4[nH]cnc34)CC2)c1 [Example 12, 2-chloro-6-[4-(3-carboxamido-phenyl)-piperazin-1-yl]1H-purine] | 1000 to 10000
Clc1cccc(N2CCN(c3nc(Cl)nc4[nH]cnc34)CC2)c1 [Example 13, 2-Chloro-6-[4-(3-chloro-phenyl)-piperazin-1-yl]1H-purine] | 10000 to 100000
COc1cc(C(=O)N2CCN(c3nc(Cl)nc4[nH]cnc34)CC2)cc(OC)c1OC [Example 14, 2-chloro-6-[4-(3,4,5-trimethoxy-phenyl)carbonyl-piperazin-1-yl]1H-purine] | 10000 to 100000
O=C(c1ccccc1)N1CCN(c2nc(Cl)nc3[nH]cnc23)CC1 [Example 15, 2-chloro-6-[4-(phenyl)carbonyl-piperazin-1-yl]1H-purine] | 1000 to 10000
Clc1nc(N2CCC(Nc3ccccc3)CC2)c2nc[nH]c2n1 [Example 16, 2-Chloro-6-[4-(phenylamino)-piperidin-1-yl]-1H-purine monohydrochloride] | < 1000
Cc1cccc(N2CCN(c3nc(Cl)nc4[nH]cnc34)CC2)n1 [Example 18, 2-Chloro-6-[4-(6-methyl-pyridin-2-yl)-piperazin-1-yl]-1H-purine monohydrochloride] | 1000 to 10000
Clc1nc(N2CCN(c3ncccn3)CC2)c2nc[nH]c2n1 [Example 19, 2-Chloro-6-[4-(pyrimidin-2-yl)-piperazin-1-yl]-1H-purine monohydrochloride] | < 1000
COc1ccccc1N1CCN(c2nc(Cl)nc3[nH]cnc23)CC1 [Example 20, 2-Chloro-6-[4-(2-methoxy-phenyl)-piperazin-1-yl]-1H-purine monohydrochloride] | 10000 to 100000
Clc1nc(N2CCN(c3ccc4ccccc4n3)CC2)c2nc[nH]c2n1 [Example 21, 2-Chloro-6-[4-(quinolein-2-yl)-piperazin-1-yl]-1H-purine monohydrochloride] | < 1000
FC(F)(F)c1ccccc1N1CCN(c2nc(Cl)nc3[nH]cnc23)CC1 [Example 22, 2-chloro-6-[4-(2-trifluoromethyl-phenyl)-piperazin-1-yl]1H-purine] | 1000 to 10000
Fc1nc(N2CCN(c3ccccn3)CC2)c2nc[nH]c2n1 [Example 23, 2-Fluoro-[4-(pyridin-2-yl)-piperazin-1-yl]1H-purine] | 1000 to 10000
FC(F)(F)c1cccnc1N1CCN(c2nc(Cl)nc3[nH]cnc23)CC1 [Example 24, 2-Chloro-6-[4-(3-trifluoromethyl-pyridin-2-yl)-piperazin-1-yl]-9H-purine] | 1000 to 10000
OCc1cc(F)ccc1N1CCN(c2nc(Cl)nc3[nH]cnc23)CC1 [Example 26, {2-[4-(2-Chloro-9H-purin-6-yl)-piperazin-1-yl]-5-fluoro-phenyl}-methanol] | < 1000
NC(=O)c1cccnc1N1CCN(c2nc(Cl)nc3[nH]cnc23)CC1 [Example 27, 2-[4-(2-Chloro-9H-purin-6-yl)-piperazin-1-yl]-nicotinamide] | < 1000
Clc1nc(N2CCN(Cc3ccccc3)CC2)c2cc[nH]c2n1 [Example 28, 4-(4-Phenylmethyl-piperazin-1-yl)-2-chloro-7H-pyrrolo[2,3-d]pyrimidine] | 1000 to 10000
Clc1nc(N2CCN(c3ccccn3)CC2)c2cc[nH]c2n1 [Example 29, 2-Chloro-4-(4-pyridin-2-yl-piperazin-1-yl)-7H-pyrrolo[2,3-d]pyrimidine] | < 1000
Cl.Clc1cc(N2CCN(c3ccccn3)CC2)c2nc[nH]c2n1 [Example 30, 5-Chloro-7-(4-pyridin-2-yl-piperazin-1-yl)-3H-imidazo[4,5-b]pyridine monohydrochloride] | < 1000
NC(=O)c1ccccc1N1CCN(c2cc(Cl)nc3[nH]cnc23)CC1 [Example 31, 2-[4-(5-Chloro-3H-imidazo[4,5-b]pyridin-7-yl)-piperazin-1-yl]-benzamide] | < 1000

tested on: not given; assay: not given; details: not given

Structure (SMILES) | melting point [°C]
Cl.Clc1nc(N2CCN(Cc3ccccc3)CC2)c2nc[nH]c2n1 [Example 1, 2-Chloro-6-[4-(phenylmethyl)-piperazin-1-yl]-1H-purine monohydrochloride] | 264 to 266
Clc1cccc(N2CCN(c3nc(Cl)nc4[nH]cnc34)CC2)c1 [Example 13, 2-Chloro-6-[4-(3-chloro-phenyl)-piperazin-1-yl]1H-purine] | > 260
Fc1nc(N2CCN(c3ccccn3)CC2)c2nc[nH]c2n1 [Example 23, 2-Fluoro-[4-(pyridin-2-yl)-piperazin-1-yl]1H-purine] | > 260
Clc1nc(N2CCN(Cc3ccccc3)CC2)c2cc[nH]c2n1 [Example 28, 4-(4-Phenylmethyl-piperazin-1-yl)-2-chloro-7H-pyrrolo[2,3-d]pyrimidine] | 250
Cl.Clc1cc(N2CCN(c3ccccn3)CC2)c2nc[nH]c2n1 [Example 30, 5-Chloro-7-(4-pyridin-2-yl-piperazin-1-yl)-3H-imidazo[4,5-b]pyridine monohydrochloride] | > 260
